Experimental data: publication PMC5641445 (Journal of medicinal chemistry, 2017)
Structures can show the parent of a compound that is named as a salt. Values belong to the compound of their own block, whether it stands above or below them.

Tests used:
[1] = Metabolic stability in mouse liver microsomes; assay type: in vitro ADME; conditions: polar carboxamides on the paroxetine template
mouse cardiomyocytes [2] = assay type: cell-based; conditions: at 0.5 μM or 1 μM
bovine GRK5 = bovine GRK5 (Bos taurus, UniProt P43249); assay: GRK5 kinase inhibition; conditions: relative to paroxetine
Chain of bovine GRK5 (P43249 whole entry): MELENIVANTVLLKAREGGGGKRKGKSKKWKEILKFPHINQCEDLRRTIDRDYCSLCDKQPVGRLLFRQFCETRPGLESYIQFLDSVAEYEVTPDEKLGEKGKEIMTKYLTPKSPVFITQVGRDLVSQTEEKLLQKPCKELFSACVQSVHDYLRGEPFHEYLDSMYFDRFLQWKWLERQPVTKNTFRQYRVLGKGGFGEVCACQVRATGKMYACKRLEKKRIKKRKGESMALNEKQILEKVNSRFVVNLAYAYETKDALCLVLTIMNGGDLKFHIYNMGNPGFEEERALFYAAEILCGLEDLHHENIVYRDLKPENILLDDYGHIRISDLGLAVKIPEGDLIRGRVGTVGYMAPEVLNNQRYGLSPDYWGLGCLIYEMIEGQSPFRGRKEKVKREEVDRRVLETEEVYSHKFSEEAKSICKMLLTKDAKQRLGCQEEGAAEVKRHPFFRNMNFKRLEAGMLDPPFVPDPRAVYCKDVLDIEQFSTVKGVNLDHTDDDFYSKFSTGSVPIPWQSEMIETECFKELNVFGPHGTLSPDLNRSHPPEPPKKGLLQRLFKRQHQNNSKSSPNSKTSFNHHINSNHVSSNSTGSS

[3] = biological target: mouse PKA catalytic subunits (Mus musculus, UniProt P05132); assay: PKA inhibition, ADP-Glo Kinase Assay
GRK2 = conditions: read-out: GRK2 IC50; Takeda compounds; cited from earlier work
[4] = Abbreviated pharmacokinetic study in mice after IP administration
mouse cardiomyocytes [5] = conditions: cited from earlier work
[6] = female, CD-1, mouse, plasma, ip, 10 mg/kg

metabolic stability in MLM, in words [1]: substantial metabolic instability
increase in GRK5 potency (bovine GRK5): 5 fold
IC50 [3]: > 100000 nM
SMILES: O=C(NCc1ccccn1)c1cc([C@@H]2CCNC[C@H]2COc2ccc3c(c2)OCO3)ccc1F [14ak, 5-((3S,4R)-3-((benzo[d][1,3]dioxol-5-yloxy)methyl)piperidin-4-yl)-2-fluoro-N-(pyridin-2-ylmethyl)benzamide hydrochloride]
increase in contractility, in words (mouse cardiomyocytes [2]): did not show a significant increase in contractility

half-life in vivo ([4]; CD-1 mice, IP 10 mg/kg, estimated from four time points): too low to quantify
concentration at 30 min [4, 6]: 1830 nM
concentration at 2 h [4, 6]: 32 nM
concentration at 4 h [4, 6]: 5 nM
concentration at 7 h [4, 6]: 6 nM
SMILES: Cn1c(CNc2cccc(C(=O)NCc3ccccc3C(F)(F)F)c2)nnc1-c1ccncc1 [compound 2, reference compound]
IC50 (GRK2): 30 nM

SMILES: CC1=C(C(=O)Nc2ccc3[nH]ncc3c2)C(c2ccc(F)cc2)NC(=O)N1 (stereo not drawn) [compound 3]
minimum dose needed to produce a significant contractility response (mouse cardiomyocytes [5]): 1 µM

SMILES: COc1cccc(OC)c1CNC(=O)c1cc(C2NC(=O)NC(C)=C2C(=O)Nc2ccc3[nH]ncc3c2)ccc1F (stereo not drawn) [compound 4]
lower concentration than paroxetine enhancing myocardial contractility (mouse cardiomyocytes [5]): 20 fold
